Laboratory results: ChEMBL document CHEMBL1157763, “Structure-activity relationships of fluorinated (E)-3-((6-methylpyridin-2-yl)ethynyl)cyclohex-2-enone-O-methyloxime (ABP688) derivatives and the discovery of a high affinity analogue as a potential candidate for imaging metabotropic glutamate recepors subtype 5 (mGluR5) with positron emission …” (J Med Chem, 2010)

Tests used:
[1] = target: T1, Metabotropic glutamate receptor 5 (Rattus norvegicus, UniProt P31424); assay: Displacement of [3H]M-MPEP from mGluR5 in Sprague-Dawley rat brain P2 membrane after 45 mins by beta counting; type: tissue-based
T1 sequence (P31424 whole entry): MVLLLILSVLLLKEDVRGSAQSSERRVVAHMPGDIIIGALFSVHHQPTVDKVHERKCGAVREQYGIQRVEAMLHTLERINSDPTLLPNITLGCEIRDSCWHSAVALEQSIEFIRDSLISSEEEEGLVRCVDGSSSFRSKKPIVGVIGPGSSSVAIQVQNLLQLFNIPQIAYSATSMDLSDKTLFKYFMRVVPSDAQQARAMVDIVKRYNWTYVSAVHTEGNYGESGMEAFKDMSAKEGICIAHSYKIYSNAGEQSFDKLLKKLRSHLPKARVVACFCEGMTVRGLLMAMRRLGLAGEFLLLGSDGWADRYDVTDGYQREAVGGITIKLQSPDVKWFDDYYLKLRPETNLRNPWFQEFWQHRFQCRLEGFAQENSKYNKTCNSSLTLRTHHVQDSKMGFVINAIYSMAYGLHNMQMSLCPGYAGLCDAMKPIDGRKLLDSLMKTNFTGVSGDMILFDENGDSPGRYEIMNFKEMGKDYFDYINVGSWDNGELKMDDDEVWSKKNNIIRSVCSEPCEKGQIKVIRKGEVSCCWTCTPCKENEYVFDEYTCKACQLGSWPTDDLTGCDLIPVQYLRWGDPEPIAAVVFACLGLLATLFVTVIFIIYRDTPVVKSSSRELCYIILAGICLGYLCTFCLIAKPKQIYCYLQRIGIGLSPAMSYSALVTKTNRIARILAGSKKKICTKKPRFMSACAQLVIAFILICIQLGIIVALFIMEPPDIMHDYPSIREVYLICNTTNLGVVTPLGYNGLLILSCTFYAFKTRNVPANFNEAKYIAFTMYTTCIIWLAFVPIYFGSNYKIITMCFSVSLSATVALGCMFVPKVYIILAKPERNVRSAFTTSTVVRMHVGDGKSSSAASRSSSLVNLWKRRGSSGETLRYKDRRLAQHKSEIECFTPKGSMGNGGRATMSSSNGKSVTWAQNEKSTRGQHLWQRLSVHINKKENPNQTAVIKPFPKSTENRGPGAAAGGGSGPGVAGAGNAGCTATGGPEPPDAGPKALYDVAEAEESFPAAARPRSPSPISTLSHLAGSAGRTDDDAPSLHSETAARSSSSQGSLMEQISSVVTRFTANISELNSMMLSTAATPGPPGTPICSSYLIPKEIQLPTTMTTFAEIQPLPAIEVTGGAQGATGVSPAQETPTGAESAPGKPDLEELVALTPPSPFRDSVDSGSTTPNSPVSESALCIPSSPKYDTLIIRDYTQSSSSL

[2] = Lipophilicity, log P after 15 mins by shake-flask method; type: physicochemical; conditions: octanol/water
[3] = target: T1, Metabotropic glutamate receptor 5; assay: Binding affinity to mGluR5 ligand binding site 2 in Sprague-Dawley rat brain P2 membrane after 45 mins by gamma counting; type: tissue-based
[4] = target: T1, Metabotropic glutamate receptor 5; assay: Binding affinity to mGluR5 ligand binding site 1 in Sprague-Dawley rat brain P2 membrane after 45 mins by gamma counting; type: tissue-based
[5] = target: Metabotropic glutamate receptor 5 (Rattus norvegicus) (UniProt P31424); assay: Binding affinity to mGluR5 ligand binding site 2 in Sprague-Dawley rat brain P2 membrane assessed per mg of protein after 45 mins by gamma counting; type: tissue-based; conditions: tested as the 18F-labelled form
Sequence of Metabotropic glutamate receptor 5 (Rattus norvegicus) (P31424 21-1203 limits assumed): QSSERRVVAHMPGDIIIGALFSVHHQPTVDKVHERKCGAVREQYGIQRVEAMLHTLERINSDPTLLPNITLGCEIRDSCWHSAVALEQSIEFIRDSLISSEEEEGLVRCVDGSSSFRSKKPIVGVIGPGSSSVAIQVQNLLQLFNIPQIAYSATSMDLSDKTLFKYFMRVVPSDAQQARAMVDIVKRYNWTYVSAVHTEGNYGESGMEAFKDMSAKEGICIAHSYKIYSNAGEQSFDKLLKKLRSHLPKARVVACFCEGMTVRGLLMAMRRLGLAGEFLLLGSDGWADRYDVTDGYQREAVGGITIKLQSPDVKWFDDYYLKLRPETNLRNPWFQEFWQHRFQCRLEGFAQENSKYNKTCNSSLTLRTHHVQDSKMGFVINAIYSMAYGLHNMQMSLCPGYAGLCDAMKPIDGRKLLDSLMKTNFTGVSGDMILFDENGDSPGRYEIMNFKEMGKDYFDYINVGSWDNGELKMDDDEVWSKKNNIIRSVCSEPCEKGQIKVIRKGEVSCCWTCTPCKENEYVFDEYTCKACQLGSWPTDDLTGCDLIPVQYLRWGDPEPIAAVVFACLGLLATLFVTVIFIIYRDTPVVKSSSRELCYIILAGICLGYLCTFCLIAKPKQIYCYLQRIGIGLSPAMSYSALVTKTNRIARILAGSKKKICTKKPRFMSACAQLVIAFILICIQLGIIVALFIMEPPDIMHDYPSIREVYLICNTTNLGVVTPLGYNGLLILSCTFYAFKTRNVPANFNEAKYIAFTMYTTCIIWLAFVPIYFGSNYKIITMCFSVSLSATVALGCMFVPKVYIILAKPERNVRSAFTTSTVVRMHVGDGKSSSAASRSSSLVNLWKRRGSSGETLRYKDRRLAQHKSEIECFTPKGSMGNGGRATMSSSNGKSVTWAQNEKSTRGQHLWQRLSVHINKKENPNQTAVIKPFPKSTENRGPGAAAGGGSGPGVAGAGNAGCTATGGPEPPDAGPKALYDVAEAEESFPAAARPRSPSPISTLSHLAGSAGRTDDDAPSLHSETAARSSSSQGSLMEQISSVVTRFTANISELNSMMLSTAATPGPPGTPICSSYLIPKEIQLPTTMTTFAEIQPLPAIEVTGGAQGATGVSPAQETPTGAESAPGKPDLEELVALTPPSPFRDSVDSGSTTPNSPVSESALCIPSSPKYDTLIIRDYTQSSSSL

[6] = target: Metabotropic glutamate receptor 5 (Rattus norvegicus) (UniProt P31424); assay: Binding affinity to mGluR5 ligand binding site 1 in Sprague-Dawley rat brain P2 membrane assessed per mg of protein after 45 mins by gamma counting; type: tissue-based; conditions: tested as the 18F-labelled form

| SMILES | Ki [1] [nM] | also measured |
| --- | --- | --- |
| Fc1cccc(O/N=C2\C=C(C#Cc3ccccn3)CCC2)n1 | 44 |  |
| N#Cc1ccc(F)cc1O/N=C1/C=C(C#Cc2ccccn2)CCC1 | 73.4 |  |
| N#Cc1ccc(O/N=C2/C=C(C#Cc3ccccn3)CCC2)cc1F | 56.1 |  |
| Cc1cccc(C#CC2=C/C(=N/Oc3cccc(F)n3)CCC2)n1 | 46.8 |  |
| [18F]CCOCCO/N=C1/C=C(C#Cc2ccccn2)CCC1 |  | Kd [3]: 13.7 nM; Kd [4]: 0.6 nM |
| N#Cc1ccc(O/N=C2\C=C(C#Cc3ccccn3)CCC2)cc1F | 49.8 |  |
| CO/N=C1/C=C(C#Cc2cccnc2)CCC1 | 252 |  |
| CO/N=C1/C=C(C#Cc2ccncc2)CCC1 | 54.8 |  |

Continued by falling Ki [1], values first:

| Ki [1] [nM] | SMILES | also measured |
| --- | --- | --- |
| 26.8 | Cc1cccc(C#CC2=C/C(=N/OCCOCCF)CCC2)n1 | logP at 0.25 h [2]: 2.1 |
| 9.15 | Fc1cccc(O/N=C2/C=C(C#Cc3ccccn3)CCC2)n1 |  |
| 8.41 | FCCOCO/N=C1/C=C(C#Cc2ccccn2)CCC1 |  |
| 5.42 | FCCCOCO/N=C1/C=C(C#Cc2ccccn2)CCC1 |  |
| 4.4 | CO/N=C1/C=C(C#Cc2cccc(C)n2)CCC1 | logP at 0.25 h [2]: 2.4 |
| 4.01 | Fc1cccnc1O/N=C1/C=C(C#Cc2ccccn2)CCC1 |  |
| 3.8 | FCCOCCO/N=C1/C=C(C#Cc2ccccn2)CCC1 | Bmax [5]: 4 pmol; logP at 0.25 h [2]: 1.7; Bmax [6]: 470 fmol |
| 2.2 | CO/N=C1/C=C(C#Cc2ccccn2)CCC1 |  |
